Measured values taken from ChEMBL document CHEMBL2074340, “Molecular characterization of human and rat organic anion transporter OATP-D” (Am J Physiol Renal Physiol, 2003).

T1: Solute carrier organic anion transporter family member 3A1 (Homo sapiens, UniProt Q9UIG8)
T1 sequence (Q9UIG8 whole entry): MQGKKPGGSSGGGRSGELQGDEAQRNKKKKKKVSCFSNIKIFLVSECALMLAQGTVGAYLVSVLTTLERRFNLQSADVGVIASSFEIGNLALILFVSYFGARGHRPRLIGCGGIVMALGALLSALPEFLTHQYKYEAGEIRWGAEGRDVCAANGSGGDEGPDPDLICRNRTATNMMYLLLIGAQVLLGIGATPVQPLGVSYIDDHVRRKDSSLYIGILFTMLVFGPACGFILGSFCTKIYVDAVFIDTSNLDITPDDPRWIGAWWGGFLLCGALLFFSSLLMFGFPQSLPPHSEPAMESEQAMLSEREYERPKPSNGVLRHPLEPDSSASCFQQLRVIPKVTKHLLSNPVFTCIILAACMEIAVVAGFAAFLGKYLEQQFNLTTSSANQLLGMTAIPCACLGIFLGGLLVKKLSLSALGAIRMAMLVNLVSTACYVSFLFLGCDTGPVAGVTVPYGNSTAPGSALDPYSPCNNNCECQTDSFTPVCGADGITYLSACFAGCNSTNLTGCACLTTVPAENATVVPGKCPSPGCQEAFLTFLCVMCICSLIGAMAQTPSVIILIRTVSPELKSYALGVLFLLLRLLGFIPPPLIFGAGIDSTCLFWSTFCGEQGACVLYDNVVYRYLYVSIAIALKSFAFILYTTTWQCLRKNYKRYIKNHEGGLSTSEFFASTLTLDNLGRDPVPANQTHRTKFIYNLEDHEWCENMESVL

T2: Solute carrier organic anion transporter family member 3A1 (SLCO3A1/OATP3A1) (Homo sapiens, UniProt Q9UIG8)
T2 sequence (Q9UIG8 whole entry): T1 sequence (Q9UIG8 whole entry)

T3: Solute carrier organic anion transporter family member 3A1 (Rattus norvegicus, UniProt Q99N02)
T3 sequence (Q99N02 whole entry): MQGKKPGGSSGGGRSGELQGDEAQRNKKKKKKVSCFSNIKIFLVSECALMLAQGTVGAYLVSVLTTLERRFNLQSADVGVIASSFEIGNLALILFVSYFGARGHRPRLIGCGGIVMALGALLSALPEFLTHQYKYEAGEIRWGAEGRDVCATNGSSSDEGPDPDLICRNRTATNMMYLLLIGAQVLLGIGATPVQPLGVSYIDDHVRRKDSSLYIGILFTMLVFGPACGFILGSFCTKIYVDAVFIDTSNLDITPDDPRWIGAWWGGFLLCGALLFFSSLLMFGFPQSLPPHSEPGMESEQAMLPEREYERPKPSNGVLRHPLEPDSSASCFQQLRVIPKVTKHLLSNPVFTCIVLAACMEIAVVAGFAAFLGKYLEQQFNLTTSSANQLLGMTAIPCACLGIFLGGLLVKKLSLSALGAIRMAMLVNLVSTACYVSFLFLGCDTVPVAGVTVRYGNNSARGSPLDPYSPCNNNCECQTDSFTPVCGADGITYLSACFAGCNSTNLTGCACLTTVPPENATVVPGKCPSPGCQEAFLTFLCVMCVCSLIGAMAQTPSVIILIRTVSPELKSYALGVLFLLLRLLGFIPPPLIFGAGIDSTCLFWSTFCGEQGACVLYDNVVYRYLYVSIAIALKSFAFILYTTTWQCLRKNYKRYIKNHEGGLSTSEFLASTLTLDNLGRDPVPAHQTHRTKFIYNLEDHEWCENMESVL

B1: Solute carrier organic anion transporter family member 3A1 (Homo sapiens) (protein)
chain: T1 sequence (Q9UIG8 whole entry)

Assays:
[1] = target: T1, Solute carrier organic anion transporter family member 3A1; experiment: (§1) TP_TRANSPORTER: uptake in Xenopus laevis oocytes; assay type: functional, cell-based; settings: oocyte
[2] = target: T2, Solute carrier organic anion transporter family member 3A1 (SLCO3A1/OATP3A1); experiment: TP_TRANSPORTER: inhibition of PGE2 uptake (PGE2: 0.015 uM) by Prostaglandin D2 at 0.15uM in Xenopus laevis oocytes; assay type: functional, cell-based, Oocyte; design: scale not given: the % may be the effect or the level left; settings: Xenopus laevis oocytes expressing OATP3A1 (SLCO3A1), probe PGE2, read-out: Activity
[3] = target: T3, Solute carrier organic anion transporter family member 3A1; experiment: as §1; assay type: functional, cell-based; settings: oocyte
[4] = target: T2, Solute carrier organic anion transporter family member 3A1 (SLCO3A1/OATP3A1); experiment: TP_TRANSPORTER: inhibition of PGE2 uptake (PGE2: 0.015 uM) by Prostaglandin E1 at 0.15uM in Xenopus laevis oocytes; assay type: functional, cell-based, Oocyte; design: scale not given: the % may be the effect or the level left; settings: Xenopus laevis oocytes expressing OATP3A1 (SLCO3A1), probe PGE2, read-out: Activity
[5] = target: T1, Solute carrier organic anion transporter family member 3A1; experiment: TP_TRANSPORTER: inhibition of PGE2 uptake (PGE2: 0.015 uM) by Prostaglandin F2alpha at 0.15uM in Xenopus laevis oocytes; assay type: functional, cell-based; design: scale not given: the % may be the effect or the level left; settings: oocyte
[6] = target: T1, Solute carrier organic anion transporter family member 3A1; experiment: TP_TRANSPORTER: inhibition of PGE2 uptake (PGE2: 0.015 uM) by […] at 0.15uM in Xenopus laevis oocytes; assay type: functional, cell-based; design: scale not given: the % may be the effect or the level left; settings: oocyte
[7] = target: T2, Solute carrier organic anion transporter family member 3A1 (SLCO3A1/OATP3A1); experiment: TP_TRANSPORTER: inhibition of PGE2 uptake (PGE2: 0.015 uM) by P-aminohippuric acid at 0.15uM in Xenopus laevis oocytes; assay type: functional, cell-based, Oocyte; design: scale not given: the % may be the effect or the level left; settings: Xenopus laevis oocytes expressing OATP3A1 (SLCO3A1), probe PGE2, read-out: Activity
[8] = substrate: CCCCC[C@H](O)/C=C/[C@H]1[C@H](O)CC(=O)[C@@H]1CCCCCCC(=O)O; experiment: as §1; assay type: functional, cell-based, Oocyte
[9] = substrate: CC/C=C\C[C@H](O)/C=C/[C@H]1[C@H](O)CC(=O)[C@@H]1C/C=C\CCCC(=O)O; experiment: as §1; assay type: functional, cell-based, Oocyte

Row | Molecule | Activity [1] | Activity [3] | also measured
1 | CCCCC[C@H](O)/C=C/[C@H]1C(=O)C[C@H](O)[C@@H]1C/C=C\CCCC(=O)O [PROSTAGLANDIN D2] | is not a substrate [-] | – | activity at 0.15 µM [2]: 30%
2 | CCCCC[C@H](O)/C=C/[C@H]1[C@H](O)CC(=O)[C@@H]1CCCCCCC(=O)O [ALPROSTADIL] | – | substrate [+] | activity at 0.15 µM [4]: 0%
3 | CCCCC[C@H](O)/C=C/[C@@H]1[C@@H](C/C=C\CCCC(=O)O)[C@@H](O)C[C@H]1O [DINOPROST] | substrate [+] | substrate [+] | Activity [5]: 0%
4 | CN(Cc1cnc2nc(N)nc(N)c2n1)c1ccc(C(=O)N[C@@H](CCC(=O)O)C(=O)O)cc1 [METHOTREXATE] | is not a substrate [-] | – | –
5 | CCCCC[C@H](O)/C=C/[C@H]1OC(O)C[C@H](O)[C@@H]1C/C=C\CCCC(=O)O (stereo not given in full) [THROMBOXANE B2] | is not a substrate [-] | – | –
6 | PROSTAGLANDIN E5 | – | substrate [+] | –
7 | CC#CCC(C)[C@H](O)/C=C/[C@@H]1[C@H]2C/C(=C/CCCC(=O)O)C[C@H]2C[C@H]1O (stereo not given in full) [ILOPROST] | is not a substrate [-] | – | –
8 | PROSTAGLANDIN E4 | – | – | Activity [6]: 0%
9 | Nc1ccc(C(=O)NCC(=O)O)cc1 [AMINOHIPPURIC ACID] | – | – | activity at 0.15 µM [7]: 30%
10 | B1 | – | – | Km [8]: 0.0485 µM; Km [9]: 0.0555 µM
